Results as given in the supplement of paper PMC7600603.

Tests used:
[1] = system: DLD1 NRF2-WT; assay: drug sensitivity score (DSS) viability (DSS score); higher = more sensitive; extreme values may be limits of the assay; conditions: 72 h; CellTiter-Glo viability
Method in brief: (§1)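 Isogenic DLD1 colorectal cancer cells, either NRF2 wild-type or CRISPR gain-of-function, were grown in DMEM with 10% FBS. They were exposed in 384-well plates to library compounds at 5 concentrations spanning a 10,000-fold range. After 72 h, viability was read by CellTiter-Glo on a Pherastar FS reader and normalised to vehicle wells and 100-μM positive-control wells. EC50 and drug sensitivity score (a normalised area under the curve) came from four-parameter logistic dose-response fits.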

[2] = system: DLD1 NRF2-WT; conditions: 72 h; CellTiter-Glo viability
Method in brief: as §1

[3] = system: DLD1 NRF2-GOF; assay: drug sensitivity score (DSS) cytotoxicity (DSS score); higher = more toxic; extreme values may be limits of the assay; conditions: 72 h; CellTox Green cytotoxicity
Method in brief: (§2)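 In 384-well plates, isogenic DLD1 cells with NRF2 wild-type or CRISPR-edited status, grown in DMEM with 10% FBS, received library compounds at 5 concentrations spanning a 10,000-fold range. At 72 h, CellTox Green signals were read on a Pherastar FS reader and scaled between vehicle wells and 100-μM positive-control wells. Cytotoxicity endpoints, TC50 and a drug sensitivity score based on normalised area under the curve, came from logistic dose-response fits.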

[4] = system: DLD1 NRF2-WT; assay: as above; conditions: 72 h; CellTox Green cytotoxicity
Method in brief: as §2

[5] = system: DLD1 NRF2-GOF; assay: TC50 cytotoxicity; higher = less toxic; conditions: 72 h; CellTox Green cytotoxicity
Method in brief: as §2

[6] = system: DLD1 NRF2-WT; assay: TC50 cytotoxicity; higher = less toxic; conditions: 72 h; CellTox Green cytotoxicity
Method in brief: as §2

| EC50 viability [2] [µM] | Compound | drug sensitivity score [1] | drug sensitivity score [3] | drug sensitivity score [4] | TC50 cytotoxicity [5] [µM] | TC50 cytotoxicity [6] [µM] |
| --- | --- | --- | --- | --- | --- | --- |
| > 1 | C[C@@H](Oc1cc(-c2cnn(C3CCNCC3)c2)cnc1N)c1c(Cl)ccc(F)c1Cl [Crizotinib] | 0 |  |  |  |  |
| 0.207 | O=C(c1ccc(F)c(F)c1Nc1ccc(I)cc1F)N1CC(O)([C@@H]2CCCCN2)C1 [Cobimetinib] | 3 |  |  |  |  |
|  | C[C@H]1CNCCCN1S(=O)(=O)c1cccc2cncc(F)c12 [Ripasudil] |  | 0 | 0 | > 10 | > 10 |
|  | C[C@]12CC[C@@H]3c4ccc(O)cc4C[C@@H](CCCCCCCCC[S+]([O-])CCCC(F)(F)C(F)(F)F)[C@H]3[C@@H]1CC[C@@H]2O (stereo not given in full) [Fulvestrant] |  | 0 | 0 | > 1 | > 1 |
|  | CC(C)(O)CNc1nc(Nc2ccnc(C(F)(F)F)c2)nc(-c2cccc(C(F)(F)F)n2)n1 [Enasidenib] |  | 0 | 0 | > 10 | > 10 |
|  | COCCNCc1ccc(-c2cc3nccc(Oc4ccc(NC(=S)NC(=O)Cc5ccc(F)cc5)cc4F)c3s2)nc1 [Glesatinib] |  | 0 | 0 | > 2.5 | > 2.5 |
|  | N#Cc1ccc2[nH]c(O)c(-c3ccc(CN4CCOCC4)cn3)c2c1 [AZD-1080] |  | 0 | 0 | > 10 | > 10 |
| 0.0052 | CC[C@]1(O)C[C@H]2CN(CCc3c([nH]c4ccccc34)[C@@](C(=O)OC)(c3cc4c(cc3OC)N(C)[C@H]3[C@@](O)(C(=O)OC)[C@H](OC(C)=O)[C@]5(CC)C=CCN6CC[C@]43[C@@H]65)C2)C1 [Vinblastine] | 22.5 | 3.4 | 4.1 | > 1 |  |
|  | Cn1cc(-c2ccc(F)c(C(F)(F)F)c2)nc1C1CCN(c2ncnc3[nH]ncc23)CC1 |  | 0 | 0 | > 10 | > 10 |
|  | CCCOc1ccn2c(C(C)=O)cc(-c3ccccc3S(C)(=O)=O)c2c1 [GSK2801] |  | 0 | 0 | > 10 | > 10 |
|  | CC(O)(CS(=O)(=O)c1ccc(F)cc1)C(=O)Nc1ccc(C#N)c(C(F)(F)F)c1 (stereo not given) [Bicalutamide] |  | 0 | 0 | > 10 | > 10 |
|  | CN(C)c1cc2c(cc1Sc1nc3c(N)nccc3n1CCNCC(C)(C)C)OCO2 [CUDC-305] |  | 0 | 0 | > 10 | > 10 |
|  | CN(C)Cc1ccc(S(=O)(=O)n2ccc(/C=C/C(=O)NO)c2)cc1 [Resminostat] |  | 0 | 0 | > 10 | > 10 |
|  | N#Cc1ccc(COC[C@H]2O[C@@H](n3c(NCc4ccc(Cl)c(Cl)c4)nc4c(N)ncnc43)[C@H](O)[C@@H]2O)cc1 | 3.2 | 0 | 0 | > 10 | > 10 |
|  | CC1(C)CC[C@]2(NC(=O)C(C)(F)F)CC[C@]3(C)[C@H](C(=O)C=C4[C@@]5(C)C=C(C#N)C(=O)C(C)(C)[C@@H]5CC[C@]43C)[C@@H]2C1 [Omaveloxolone] |  | 0 | 0 | > 10 | > 10 |
|  | Nc1nc2cc(-c3ccc4ncc(C(=O)N5CCOCC5)n4c3)ccc2o1 [MLN1117] |  | 0 | 0 | > 10 | > 10 |
| 0.855 | CC(C)n1cnc2c(NCCc3ccc(O)cc3)nc(-c3csc4ccccc34)nc21 [StemRegenin 1] | 3.9 |  |  |  |  |
|  | CNC(=O)[C@@H](NC(=O)[C@H](CC(C)C)[C@H](O)C(=O)NO)C(C)(C)C [Marimastat] |  | 0 | 0 | > 10 | > 10 |
| 0.0052 | CC[C@@H]1C(=O)N(C)c2cnc(Nc3ccc(C(=O)NC4CCN(C)CC4)cc3OC)nc2N1C1CCCC1 [BI 2536] | 21.8 | 2.3 | 3.1 |  | 0.188 |
|  | C=CCN(/C=C1/C(=O)O[C@H](COC)[C@@]2(C)C1=C(O)C(=O)C1=C2[C@H](OC(C)=O)C[C@]2(C)C(=O)CC[C@@H]12)CC=C [Sonolisib] |  | 0 | 0 | > 10 | > 10 |
|  | NC(=O)/C(=C/n1cnc(-c2cc(C(F)(F)F)cc(C(F)(F)F)c2)n1)c1cncnc1 [KPT-8602] |  | 0 | 0 | > 10 | > 10 |
|  | Nc1cccc2c1CN(C1CCC(=O)NC1=O)C2=O (stereo not given) [Lenalidomide] |  | 0 | 0 | > 100 | > 100 |
